What was measured:
GRASP55‐PDZ tandem = test system: T1, GRASP55‐PDZ tandem; test: Surface plasmon resonance (BIAcore), GRASP55 PDZ tandem; format: binding, human; details: 50µM ‐1000 µM
T1 construct: made in house; host or cells: Biotin XCell F' E. coli cells
Procedure: All SPR experiments were conducted with a BIAcore T200 instrument (GE Healthcare), at 25°C. A total of 8000 resonance units (RU) of biotinylated ligands (N‐terminal 6xHis tagged biotinylated syntenin tandem, syntenin tandem with C terminus, GRASP55 tandem or GST as control) were immobilized on a streptavidin‐sensor chip (GE Healthcare). Analytes (C58 and SyntOFF compounds) were perfused at 30 µl per min in running buffer (10 mM HEPES pH 7.4, 150 mM NaCl, 0.005% Tween20) at different concentrations. The reference channel was N‐terminal 6xHis tagged biotinylated GST protein. The injection time was 240 s, long enough for the sensorgrams to reach equilibrium, and the dissociation time was 240 s. To carry out these SPR experiments, we employed the method known as ‘single‐cycle kinetics’ described in 2006 by Karlsson and co‐workers (Karlsson, Katsamba, Nordin, Pol, & Myszka, 2006). It consists in injecting the analyte at increasing concentrations, without regeneration steps between each sample injection to avoid that folded‐proteins can be damaged after regeneration steps. Equilibrium dissociation constants (KD) were calculated by fitting the data to a simple Langmuir binding isotherm using GraphPad Prism. For determination of the apparent KD, signals obtained at equilibrium were plotted as a function of compound concentration. […]

[1] = test system: T2, syntenin‐Frizzled7 complex (GST-SyntFL / FZD7 peptide); test: HTRF assay, syntenin-Frizzled 7 interaction; format: biochemical, human
T2 construct: residues 1–298 or syntenin full‐length (FL) for HTRF assays; made in house; host or cells: E. coli ER2566
Procedure: HTRF assays were performed in white 96Well Small VolumeHiBase Polystyrene Microplates (Greiner) with a total working volume of […], as described previously (Milhas et al., 2016). Briefly, compounds were firstly dispensed into the wells at 400 µM for the primary screen or with serial DMSO dilutions for IC50 measurement assays. Primary screening assays have been performed in monoplicate while IC50 measurements were performed in triplicates. All HTRF reagents were purchased from CisBio Bioassays and reconstituted according to the supplier protocols. The plates were spun for 3 min at 500 × g and then incubated at 4°C for 16 h. The HTRF signals were recorded on a POLAR star Omega plate reader (BMG Labtech) with an excitation filter at 337 nm and fluorescence wavelength measurement at 620 and 665 nm, an integration delay of 60 µs and an integration time of 400 µs. Results were analysed with a two‐wavelength signal ratio: [intensity (665 nm)/intensity (620 nm)] × 10^4. Percentage of inhibition was calculated using the following equation: % inhibition = [(compound signal)–(min signal)]/[(max signal)–(min signal)] × 100, where ‘max signal’ is the signal ratio with the compound vehicle alone (DMSO) and ‘min signal’ the signal ratio without protein B. For IC50 measurements, values were normalized and fitted with Prism (GraphPad software) using the following equation: Y = 100/(1+((X/ IC50)ˆHill slope)).
The search strategy for PDZ2 syntenin inhibitors was based on the PDZ targeted library developed from Enamine compound collection. The PDZ targeted library was developed to cover virtually all PDZ domains. Consequently, to create the syntenin PDZ2 focused library we used two independent paths: docking of the PDZ targeted library against structures of syntenin PDZ2 available in Protein Data Bank and a random selection from the PDZ targeted library. The docking has produced 21 virtual hits, which were added to 118 randomly selected compounds (10% of the pan PDZ library). The resultant set of 139 compounds, syntenin PDZ library was subjected to experimental validation. The primary screen was performed at 400µM using a previously validated Homogeneous Time Resolved Fluorescence (HTRF) assay (Milhas et al., 2016). HTRF is based on Fluorescence Resonance Energy Transfer (FRET) between two fluorescent reagents. In the present case, Anti‐GST‐Terbium antibody and streptavidin‐bound Dynamic2 were used as donor and acceptor respectively. Interactions between GST PDZ‐fusion proteins and biotinylated peptides containing PDZ binding motifs were challenged with the potential inhibitors. In parallel, control experiments were performed with a biotinylated‐GST to verify that compounds were not interfering with the FRET signal in a non‐specific manner. To identify inhibitors of syntenin PDZ interactions, we tested for the effect of the 139 compounds on syntenin‐SDC2 and syntenin‐Frizzled7 complexes (Figure 1a; Table S1). When the HTRF signal dropped below 0.9, inhibition was considered as effective. […] Noteworthy, these compounds had no effect on other PDZ complexes like GRASP55‐JAM‐B or GRASP55‐JAM‐C and Erbin‐Erbb2 or Erbin‐P0071 (Figure 1c).

MCF‐7 SyntKO cells = test: Cancer cell viability (Annexin V/7-AAD flow cytometry), MCF-7 SyntKO; format: cell-based; details: concentrations up to 100 µM, 48 h
Procedure: The effects of the compounds C58 and SyntOFF were tested both on MCF‐7 and MCF‐7 SyntKO cells. Briefly, the cells were treated with increasing concentrations of the compounds for 48 h and early/late apoptosis was measured by using the FITC Annexin V apoptosis detection kit with 7‐AAD (Biolegend, San Diego, CA, USA) according to the manufacturer. Annexin V positive but 7‐AAD negative (early apoptotic cells) and Annexin V positive and 7‐AAD positive (late stage apoptosis) was determined by using FACS LSRII flow cytometer (BD Biosciences) and data were analysed with Flowjo software (Tree Star).

[2] = Chemical solubility and stability in PBS; format: physicochemical; details: aqueous buffer; PBS pH 7.4 22°C

SMILES	binding to GRASP55‐PDZ tandem (GRASP55‐PDZ tandem)	GST SyntFL Frizzled 7 (signal ratio) ([1]; 400µM compound, Figure 1c)	HTRF ASSAY GST-SyntFL FZD7 (HTRF signal ratio) ([1]; primary screen, 400 µM compound, signal below 0.9 considered effective inhibition, Table S1)	toxicity (cell viability) (MCF‐7 SyntKO cells)	solubility [2] [µg/mL]
CC(C)[C@H](NC(=O)CSc1ccc(Cl)cc1)C(=O)O [Compound C58]	no binding	0.38	0.39	not toxic	
CC(C)[C@H](NC(=O)CCSc1ccc(Cl)cc1)C(=O)O [SyntOFF, (S)‐2‐(3‐(4‐chlorophenylthio)propanamido)‐3‐methylbutanoic acid]					> 2300
